Experimental data as given in patent publication US20240209028A1, “CNP COMPOUNDS” (priority 2022, published 2024).
Starred links: 1 amine or outer side, 2 acyl side, 3 side chain; linkers in the order of their positions; H or OH if unused. Positions of bridges follow the written chain, without caps; N, C: chain ends. Residues, ends and D or L forms follow the SMILES beside them. *: point of attachment. C18 diacid = O=C(O)CCCCCCCCCCCCCCCCC(=O)*; γGlu = O=C(O)[C@H](CCC(=O)[*:2])N[*:1]; AEEA = NCCOCCOCC(=O)O

Assay: CNP local tolerance study in LYD pigs (s.c. injection, histopathology)
Format: in vivo, domestic LYD pig
From the text: The purpose of this study was to evaluate the local tissue reaction response to subcutaneous injection of CNP compounds in pigs.
Procedure: In domestic pigs, the injection site was subjected to histopathologic examination after subcutaneous dosing. Injections were placed mid-back between the shoulder and hip on both sides of the dorsal midline, and one or two days before injection sites of 2×2 cm were shaved and marked by permanent ink under light anaesthesia. Each injection consisted of 100 or 200 μl formulation with a concentration of approx. 4400 μM. CNP compound formulations were prepared according to the principles in General Methods of Preparation—Method G, and were either A) 8 mM sodium phosphate, 250 mM glycerol, pH 6.5, B) 5 mM sodium acetate, 250 mM glycerol, pH 4.0 or C) 5 mM sodium acetate, 240 mM propylene glycol, pH 4.0 and physiological saline was included as negative control.
On Day 1 the pigs were lightly anaesthetised. An insulin pen (NovoPen 4) and insulin needle (NovoTwist 32G/5 mm) were used for accurate deposition of the CNP formulations in the subcutaneous fat tissue with the needle perpendicular to the skin. On Day 5 (4 days post injection) or 6 (5 days post injection), the pigs were euthanised, and the injection sites were removed and fixed in 4% phosphate buffered neutral formaldehyde in sealed plastic containers. The tissue blocks were prefixed for 2-4 hours in 10% buffered formalin, cut into 2 mm thick slabs with a multi knife, examined for macroscopic changes and finally fixed overnight in cassettes. Two slabs of tissue were selected for light microscopic evaluation where the tissue reaction was maximal or alternatively in the central part of the injection site. Three to four 2-4 μm sections were cut from three levels at 100 μm distance, stained with haematoxylin and eosin (H&E) and evaluated in a light microscope. Histopathological changes were graded on a 5-level scale ((Minimal (Min), Mild (Mil), Moderate (Mod), Marked (Mar) and Severe (Sev)). The studies are summarised in Table 18.
Results: The results are summarised in Table 19. * Necrosis was used as a marker for local subcutaneous reactions; **NAD: No Abnormalities Detected

[1] = LYD pig, s.c., approx. 4400 μM, 4 or 5 days after injection

Compound: CC[C@H](C)[C@@H]1NC(=O)[C@H](CCCNC(=N)N)NC(=O)[C@H](CC(=O)O)NC(=O)[C@H](CC(C)C)NC(=O)[C@@H]2CCCN2C(=O)[C@H](CC(C)C)NC(=O)CNC(=O)[C@H](Cc2ccccc2)NC(=O)[C@@H](NC(=O)CNC(=O)[C@H](CCC(N)=O)NC(=O)[C@H](CO)NC(=O)CNC(=O)CNC(=O)[C@H](CCCCN)NC(=O)[C@H](CCCCN)NC(=O)[C@H](CCC(N)=O)NC(=O)[C@H](C)NC(=O)CNC(=O)[C@H](CCCCN)NC(=O)[C@H](Cc2ccc(O)cc2)NC(=O)COCCOCCNC(=O)COCCOCCNC(=O)COCCOCCNC(=O)COCCOCCNC(=O)CC[C@H](NC(=O)CC[C@H](NC(=O)CCCCCCCCCCCCCCCCC(=O)O)C(=O)O)C(=O)O)CSSC[C@@H](C(=O)O)NC(=O)CNC(=O)[C@H](CC(C)C)NC(=O)CNC(=O)[C@H](CO)NC(=O)[C@H](CC(C)C)NC(=O)[C@H](CO)NC(=O)CNC1=O [Compound 9435] ({C18 diacid-γGlu-γGlu-AEEA-AEEA-AEEA-AEEA}-YKGAQKKGGSQGCFGLPLDRIGSLSGLGC-OH; disulfide 13-29)
- Number of injections by severity of necrosis: Mild [1]: 1
- Number of injections by severity of necrosis: Min. [1]: 3

Compound: CC[C@H](C)[C@@H]1NC(=O)[C@H](CCCNC(=N)N)NC(=O)[C@H](CC(=O)O)NC(=O)[C@H](CC(C)C)NC(=O)[C@@H]2CCCN2C(=O)[C@H](CC(C)C)NC(=O)CNC(=O)[C@H](Cc2ccccc2)NC(=O)[C@@H](NC(=O)CNC(=O)[C@H](CCC(N)=O)NC(=O)[C@H](CO)NC(=O)[C@H](CC(C)C)NC(=O)CNC(=O)[C@H](CCCCN)NC(=O)[C@H](CCCCN)NC(=O)[C@H](CCC(N)=O)NC(=O)[C@H](C)NC(=O)CNC(=O)[C@H](CCCCN)NC(=O)[C@H](Cc2ccc(O)cc2)NC(=O)COCCOCCNC(=O)COCCOCCNC(=O)COCCOCCNC(=O)COCCOCCNC(=O)CC[C@H](NC(=O)CC[C@H](NC(=O)CC[C@H](NC(=O)CCCCCCCCCCCCCCCCC(=O)O)C(=O)O)C(=O)O)C(=O)O)CSSC[C@@H](C(=O)O)NC(=O)CNC(=O)[C@H](CC(C)C)NC(=O)CNC(=O)[C@H](CO)NC(=O)[C@H](CC(C)C)NC(=O)[C@H](CO)NC(=O)CNC1=O [Compound 9480] ({C18 diacid-γGlu-γGlu-γGlu-AEEA-AEEA-AEEA-AEEA}-YKGAQKKGLSQGCFGLPLDRIGSLSGLGC-OH; disulfide 13-29)
- Number of injections by severity of necrosis: NAD [1]: 4

Compound: CC[C@H](C)[C@@H]1NC(=O)[C@H](CCCNC(=N)N)NC(=O)[C@H](CC(=O)O)NC(=O)[C@H](CC(C)C)NC(=O)[C@H](CCCCN)NC(=O)[C@H](CC(C)C)NC(=O)CNC(=O)[C@H](Cc2ccccc2)NC(=O)[C@@H](NC(=O)CNC(=O)[C@H](CCCCN)NC(=O)[C@H](CO)NC(=O)[C@H](CC(C)C)NC(=O)CNC(=O)[C@H](CCCCN)NC(=O)[C@H](CCCCN)NC(=O)[C@H](CCC(N)=O)NC(=O)[C@H](C)NC(=O)CNC(=O)[C@H](Cc2c[nH]cn2)NC(=O)[C@H](CCC(=O)O)NC(=O)COCCOCCNC(=O)COCCOCCNC(=O)CC[C@H](NC(=O)CCCCCCCCCCCCCCCCC(=O)O)C(=O)O)CSSC[C@@H](C(=O)O)NC(=O)CNC(=O)[C@H](CC(C)C)NC(=O)CNC(=O)[C@H](CO)NC(=O)[C@H](CC(C)C)NC(=O)[C@H](CO)NC(=O)CNC1=O [compound 1235]
- local subcutaneous necrosis (pig, in vivo, sc): minimal to mild

Compound: CC[C@H](C)[C@@H]1NC(=O)[C@H](CCCNC(=N)N)NC(=O)[C@H](CC(=O)O)NC(=O)[C@H](CC(C)C)NC(=O)[C@@H]2CCCN2C(=O)[C@H](CC(C)C)NC(=O)CNC(=O)[C@H](Cc2ccccc2)NC(=O)[C@@H](NC(=O)CNC(=O)[C@H](CO)NC(=O)[C@H](CO)NC(=O)[C@H](CC(C)C)NC(=O)CNC(=O)[C@H](CCCCN)NC(=O)[C@H](CCCCN)NC(=O)[C@H](CCC(N)=O)NC(=O)[C@H](C)NC(=O)CNC(=O)[C@H](CCCCN)NC(=O)[C@H](Cc2ccc(O)cc2)NC(=O)[C@H](CCCCN)NC(=O)[C@H](CCCNC(=N)N)NC(=O)[C@H](C)NC(=O)[C@H](CCC(N)=O)NC(=O)[C@@H]2CCCN2C(=O)[C@H](Cc2c[nH]cn2)NC(=O)[C@H](CCC(=O)O)NC(=O)[C@H](CCC(N)=O)NC(=O)CC[C@H](NC(=O)CC[C@H](NC(=O)CC[C@H](NC(=O)CC[C@H](NC(=O)CC[C@H](NC(=O)CCCCCCCCCCCCCCCCC(=O)O)C(=O)O)C(=O)O)C(=O)O)C(=O)O)C(=O)O)CSSC[C@@H](C(=O)O)NC(=O)CNC(=O)[C@H](CC(C)C)NC(=O)CNC(=O)[C@H](CO)NC(=O)[C@H](CC(C)C)NC(=O)[C@H](CO)NC(=O)CNC1=O [Compound 9482] ({C18 diacid-γGlu-γGlu-γGlu-γGlu-γGlu}-QEHPQARKYKGAQKKGLSSGCFGLPLDRIGSLSGLGC-OH; disulfide 21-37)
- Number of injections by severity of necrosis: NAD [1]: 4
